Values quoted from earlier work, collected in US6579860B1, “Interleukin-6 production inhibitors” (Toray Industries, Inc., priority 1998, dated 2003).

Tested on: mouse macrophage cells
Details: Pannanen N. et al., Pharmaceutical Research 12(6)
For `O=P(O)(O)C(Cl)(Cl)P(=O)(O)O` [clodronate], the “effect on cytokine production/release” value is listed as “suppresses cytokine production”. In the case of `CC(O)(P(=O)(O)O)P(=O)(O)O` [etidronate], the “effect on cytokine production/release” value is given as “does not have such an effect”. For `NCCC(O)(P(=O)(O)O)P(=O)(O)O` [pamidronate], the “effect on cytokine production/release” value is given as “enhances release of cytokine”.
